{"source": "patent US9434688B2", "about": "“Indole derivatives as selective androgen receptor modulators (SARMS)” (Janssen Pharmaceutica, NV, priority 2004, dated 2016)", "note": "Several values for one entry are separate records, joined by “and”; a condition that tells them apart may be missing. Equal entries are not always repeated.", "data": [{"molecular_target": "T1, androgen receptor (Rattus norvegicus, UniProt P15207)", "T1 sequence (P15207 1-902)": "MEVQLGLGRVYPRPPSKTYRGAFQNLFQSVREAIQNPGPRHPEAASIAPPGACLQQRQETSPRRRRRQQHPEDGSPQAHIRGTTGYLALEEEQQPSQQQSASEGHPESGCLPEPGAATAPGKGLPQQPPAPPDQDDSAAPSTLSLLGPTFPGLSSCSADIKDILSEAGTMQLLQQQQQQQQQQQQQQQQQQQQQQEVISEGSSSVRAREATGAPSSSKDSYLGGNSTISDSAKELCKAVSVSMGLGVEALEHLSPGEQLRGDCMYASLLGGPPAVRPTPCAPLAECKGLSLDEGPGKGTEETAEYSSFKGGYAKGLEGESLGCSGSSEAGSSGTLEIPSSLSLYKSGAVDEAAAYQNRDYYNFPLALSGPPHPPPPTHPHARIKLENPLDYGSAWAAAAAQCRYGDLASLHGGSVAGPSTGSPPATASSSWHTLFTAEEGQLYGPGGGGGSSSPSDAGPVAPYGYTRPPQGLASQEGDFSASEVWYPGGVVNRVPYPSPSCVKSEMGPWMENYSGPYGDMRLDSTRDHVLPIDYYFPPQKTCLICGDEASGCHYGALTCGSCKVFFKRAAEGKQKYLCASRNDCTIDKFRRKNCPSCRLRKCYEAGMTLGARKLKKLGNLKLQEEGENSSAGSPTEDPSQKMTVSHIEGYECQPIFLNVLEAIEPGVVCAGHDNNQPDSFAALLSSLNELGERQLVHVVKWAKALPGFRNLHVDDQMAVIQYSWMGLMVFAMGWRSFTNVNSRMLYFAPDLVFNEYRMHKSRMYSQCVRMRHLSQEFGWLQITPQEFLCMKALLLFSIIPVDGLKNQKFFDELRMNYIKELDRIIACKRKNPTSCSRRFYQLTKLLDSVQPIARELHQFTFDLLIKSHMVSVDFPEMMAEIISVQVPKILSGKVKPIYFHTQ", "assay": "Androgen Receptor Binding Using Rat Ventral Prostate Cytosol", "design": "from tissue; host or cells: ventral prostate cytosol of castrated male Sprague Dawley or Wistar rats", "settings": "Rat Cytosol; Concentration 1000 nM", "protocol": "(§1) Rat Prostate Cytosol Preparation:\n(§2) Male Sprague Dawley or Wistar rats (Charles River, 200-300 g) were used for each preparation. The day before preparing the cytosol, the rats were castrated using standard surgical procedures.\n(§3) The rats were euthanized by carbon dioxide asphyxiation. The rat prostates were quickly removed and placed on ice in pre-chilled, pre-weighed 50 mL plastic tubes. No more than five prostates were placed into one tube. The tubes were then weighed and the prostate tissue wet weights calculated.\n(§4) To the chilled prostate tissue was then added […] of chilled homogenization buffer. The homogenization buffer was freshly prepared by mixing 10 mM Tris.HCl, pH 7.4, 1 mM sodium molybdate, 1.5 mM EDTA, 1 mM dithiothreitol, 10% (v/v) glycerol and 1% protease inhibitor cocktail (Sigma P 8340).\n(§5) The prostate tissue was homogenized in a cold room using a pre-chilled Polytron PT3000 homogenizer (Brinkmann). Homogenization was performed at a speed setting of 20, three times for 10 sec bursts. The tubes containing the prostate tissue was kept on ice while homogenizing. The homogenate was allowed to rest on ice for 20 sec between bursts.\n(§6) The homogenate was then placed into pre-chilled 3 mL polycarbonate ultracentrifuge tubes and centrifuged in the TLA-100 rotor of a TL-100 ultracentrifuge for 12 min at 100,000 rpm at 4° C. The resulting supernatant was stored in 1 mL aliquots at −80° C. until needed.\n(§7) Binding to the androgen receptor was determined according to the protocol described in Example 86 using the above prepared rat cytosol.\n(§8) % Inhibition was determined by testing dilutions of the test compound (usually duplicates of 10 μM) in the binding assay. Counts per well were measured and percents of inhibition determined. […] Counts per well were measured and IC50s determined by linear regression.", "units": {"% Inhibition": "%"}, "values": [{"smiles": "CC(O)(Sc1ccc(Cl)c(Cl)c1)c1cc2cc([N+](=O)[O-])c(C(F)(F)F)cc2[nH]1", "note": "(racemic) [compound 254]", "% Inhibition": 41}, {"smiles": "CC(O)(c1cc2cc([N+](=O)[O-])c(C(F)(F)F)cc2[nH]1)S(=O)(=O)c1ccc(Cl)c(Cl)c1", "note": "(racemic) [compound 255]", "% Inhibition": 26}, {"smiles": "CC(O)(Sc1ccccc1)c1cc2cc([N+](=O)[O-])c(C(F)(F)F)cc2[nH]1", "note": "(racemic) [compound 258]", "% Inhibition": 35.4}, {"smiles": "CC(O)(Sc1ccc(Cl)cc1)c1cc2cc(C#N)c(C(F)(F)F)cc2[nH]1", "note": "(racemic) [compound 261]", "% Inhibition": 14.05}, {"smiles": "CC(O)(c1cc2cc(C#N)c(C(F)(F)F)cc2[nH]1)S(=O)(=O)c1ccc(Cl)cc1", "note": "(racemic) [compound 262]", "% Inhibition": "−8.4"}, {"smiles": "CS(=O)(=O)n1c(C2(O)CCN(C(=O)c3ccc(Cl)cc3)CC2)cc2cc(Cl)c(C(F)(F)F)cc21", "note": "[compound 24]", "% Inhibition": 2}]}, {"molecular_target": "T1, androgen receptor", "assay": "Androgen Receptor Binding Using Rat Ventral Prostate Cytosol", "design": "from tissue; host or cells: ventral prostate cytosol of castrated male Sprague Dawley or Wistar rats", "settings": "Rat Cytosol; Concentration 3000 nM", "protocol": "as §1, §2, §3, §4, §5, §6, §7, §8", "units": {"% Inhibition": "%"}, "values": [{"smiles": "CN(C)c1ccc(S(=O)(=O)CC(C)(O)c2cc3cc(Cl)c(C(F)(F)F)cc3[nH]2)cc1", "note": "(racemic) [compound 126]", "% Inhibition": "−30"}, {"smiles": "CC(O)(CS(=O)(=O)Cc1ccccc1)c1cc2cc([N+](=O)[O-])c(C(F)(F)F)cc2[nH]1", "note": "(racemic) [compound 162]", "% Inhibition": 0.69}, {"smiles": "CC(O)(Sc1ccc(N)cc1)c1cc2cc(Cl)c(C(F)(F)F)cc2[nH]1", "note": "(racemic) [compound 265]", "% Inhibition": 93.5}, {"smiles": "CC(O)(Sc1ccc(N)cc1)c1cc2cc([N+](=O)[O-])c(C(F)(F)F)cc2[nH]1", "note": "(racemic) [compound 266]", "% Inhibition": 12.4}, {"smiles": "CC(C)SC(C)(CO)c1cc2cc([N+](=O)[O-])c(C(F)(F)F)cc2[nH]1", "note": "(racemic) [compound 268]", "% Inhibition": "−3.3"}]}, {"molecular_target": "T1, androgen receptor", "assay": "L929 Androgen Receptor Functional Assay, Adenovirus Transduction", "assay_type": "cell-based", "design": "expressed in transfected cells; host or cells: L929 cells transduced with adenovirus AdEasy+rAR", "settings": "L929 agonist testing; @ 8000 nM", "protocol": "(§9) L929 cells were plated in 96-well plates at 20,000 cells per well, in DMEM/F12 (GIBCO) containing 10% (v/v) charcoal-treated fetal bovine serum (Hyclone) and lacking phenol red. The plates were then incubated overnight at 37° C. in 5% (v/v) humidified CO2.\n(§10) Test compound dilutions were prepared in 100% (v/v) DMSO, if necessary. Each dilution was made to 1250× the final desired assay concentration.\n(§11) First, 2 mL of DMEM/F12 lacking phenol red was pipetted into the wells of a 2-mL 96-well assay block. Next, 4 μL of the 1250× test compound dilutions were pipetted into each well of the assay block. The mixtures within the well were then carefully mixed by pipette.\n(§12) In a 15 mL or 50 mL sterile centrifuge tube, a 2.5 nM (2.5×) dilution of R1881 (methyl-trienolone) in DMEM/F12 lacking phenol red was prepared.\n(§13) In a second 15 mL or 50 mL centrifuge tube a solution containing an equal volume of DMEM to the first and an equal volume of 100% (v/v) DMSO to the volume of R1881 used in the first tube was prepared.\n(§14) In a 15 mL or 50 mL sterile centrifuge tube, a dilution in DMEM/F12 of the adenovirus AdEasy+rAR at an moi of 1:500 per well was prepared.\n(§15) The medium was removed from the 96-well plates by inversion and dried, inverted, very briefly. As soon as possible after medium removal, 40 μL of the diluted unlabeled test compound was added to each well, in duplicate. To each well designated for antagonist testing was added 40 μL of the 2.5 nM R1881 dilution to the wells for antagonist testing. To each well designated for agonist testing was added 40 μL of the DMSO dilution. Then 20 μL of the diluted adenovirus were added to all wells. The plates were incubated for 48 hours at 37° C. in 5% (v/v) humidified CO2.\n(§16) To each well was added 100 μL of Steady-Glo luciferase assay substrate (Promega) and the plates were placed on a rotary shaker for 1 min. The plates were then incubated at room temperature in the dark for one hour. The contents of each well were then transferred to a white microtiter plate (Packard) and read on a Luminoskan Ascent (Thermo Lab Systems).\n(§17) L929 AR percent activity was determined by testing dilutions of the test compound using a concentration of 3000 nM unless otherwise noted. L929 percent inhibition was determined by testing dilutions of the test compound using a concentration of 3000 nM. […] Luciferase activity per well were measured and EC50s and IC50s determined by linear regression.", "values": [{"smiles": "CCSCC(C)(O)c1cc2cc(C#N)c(C(F)(F)F)cc2[nH]1", "note": "(single isomer, unassigned) [Compound #217, 2-(2-Ethylsulfanyl-1-hydroxy-1-methyl-ethyl)-6-trifluoromethyl-1H-indole-5-carbonitrile]", "% Activity": "0 @ 8000 nM %"}]}, {"molecular_target": "T1, androgen receptor", "assay": "L929 Androgen Receptor Functional Assay, Adenovirus Transduction", "assay_type": "cell-based", "design": "expressed in transfected cells; host or cells: L929 cells transduced with adenovirus AdEasy+rAR", "settings": "L929 agonist testing; concentration of 3000 nM", "protocol": "as §9, §10, §11, §12, §13, §14, §15, §16, §17", "units": {"% Activity": "%"}, "values": [{"smiles": "CC[S+]([O-])CC(O)c1cc2cc([N+](=O)[O-])c(C(F)(F)F)cc2[nH]1", "note": "(mixture of isomers) [compound 180]", "% Activity": 2}, {"smiles": "CSCCC(C)(O)c1cc2cc(Cl)c(C(F)(F)F)cc2[nH]1", "note": "(racemic) [compound 51]", "% Activity": 2}, {"smiles": "CN(C)c1ccc(S(=O)(=O)CC(C)(O)c2cc3cc(Cl)c(C(F)(F)F)cc3[nH]2)cc1", "note": "(racemic) [compound 126]", "% Activity": "−5"}, {"smiles": "CC(O)(CS(=O)(=O)Cc1ccccc1)c1cc2cc([N+](=O)[O-])c(C(F)(F)F)cc2[nH]1", "note": "(racemic) [compound 162]", "% Activity": 2}, {"smiles": "CCCSCC(C)(O)c1cc2cc(Cl)c(C(F)(F)F)cc2[nH]1", "note": "(racemic) [compound 196]", "% Activity": 13}, {"smiles": "CC(O)(CSCc1ccco1)c1cc2cc([N+](=O)[O-])c(C(F)(F)F)cc2[nH]1", "note": "(racemic) [compound 198]", "% Activity": 7}, {"smiles": "CC(O)(CS(=O)(=O)CC(F)(F)F)c1cc2cc([N+](=O)[O-])c(C(F)(F)F)cc2[nH]1", "note": "(racemic) [compound 208]", "% Activity": 1}, {"smiles": "CC(O)(CSCC(F)(F)F)c1cc2cc(C#N)c(C(F)(F)F)cc2[nH]1", "note": "(racemic) [compound 211]", "% Activity": "−1"}, {"smiles": "CCS(=O)(=O)CC(C)(O)c1cc2cc(C#N)c(C(F)(F)F)cc2n1C", "note": "(racemic) [compound 240]", "% Activity": 0}, {"smiles": "CC(O)(Sc1ccc(N)cc1)c1cc2cc(Cl)c(C(F)(F)F)cc2[nH]1", "note": "(racemic) [compound 265]", "% Activity": "−1"}, {"smiles": "CC(O)(Sc1ccc(N)cc1)c1cc2cc([N+](=O)[O-])c(C(F)(F)F)cc2[nH]1", "note": "(racemic) [compound 266]", "% Activity": "−4"}, {"smiles": "CC(C)SC(C)(CO)c1cc2cc([N+](=O)[O-])c(C(F)(F)F)cc2[nH]1", "note": "(racemic) [compound 268]", "% Activity": 9}, {"smiles": "CSCCC(C)(O)c1cc2cc([N+](=O)[O-])c(C(F)(F)F)cc2[nH]1", "note": "(centres unmarked) [compound 47]", "% Activity": 2}, {"smiles": "COc1ccc(S(=O)(=O)CC(C)(O)c2cc3cc(Cl)c(C(F)(F)F)cc3n2S(C)(=O)=O)cc1", "note": "(centres unmarked) [compound 128]", "% Activity": "−4"}, {"smiles": "CC(O)(CSc1ccc(C(=O)O)cc1)c1cc2cc(Cl)c(C(F)(F)F)cc2n1S(C)(=O)=O", "note": "(centres unmarked) [compound 132]", "% Activity": "−5"}, {"smiles": "CC(O)(CSc1ccc(C(=O)O)cc1)c1cc2cc(Cl)c(C(F)(F)F)cc2[nH]1", "note": "(centres unmarked) [compound 133]", "% Activity": "−4"}, {"smiles": "CC(O)(CS(C)(=O)=O)c1cc2cc(Cl)c(C(F)(F)F)cc2n1S(C)(=O)=O", "note": "(centres unmarked) [compound 137]", "% Activity": 0}, {"smiles": "CC(C)CSCC(C)(O)c1cc2cc([N+](=O)[O-])c(C(F)(F)F)cc2[nH]1", "note": "(centres unmarked) [compound 170]", "% Activity": 2}]}, {"molecular_target": "T1, androgen receptor", "assay": "L929 Androgen Receptor Functional Assay, Adenovirus Transduction", "assay_type": "cell-based", "design": "expressed in transfected cells; host or cells: L929 cells transduced with adenovirus AdEasy+rAR", "settings": "L929 agonist testing; concentration of 3000 nM; 3 µM", "protocol": "as §9, §10, §11, §12, §13, §14, §15, §16, §17", "values": [{"smiles": "CSC(C)(O)c1cc2cc([N+](=O)[O-])c(C(F)(F)F)cc2[nH]1", "note": "(racemic) [compound 267]", "% Activity": "−5% and 0%"}]}, {"molecular_target": "T1, androgen receptor", "assay": "L929 Androgen Receptor Functional Assay, Adenovirus Transduction", "assay_type": "cell-based", "design": "expressed in transfected cells; host or cells: L929 cells transduced with adenovirus AdEasy+rAR", "settings": "L929 antagonist testing with R1881", "protocol": "as §9, §10, §11, §12, §13, §14, §15, §16, §17", "units": {"IC50": "µM"}, "values": [{"smiles": "CC[S+]([O-])CC(C)(O)c1[nH]c2cc(C(F)(F)F)c(C#N)cc2c1C", "note": "(centres unmarked) [compound 252]", "IC50": 3.1}]}]}
